Measured values reported in patent publication US10976310B2, “Ligand identification by co-fractionation” (MAX-PLANCK-GESELLSCHAFT ZUR FÖRDERUNG DER WISSENSCHAFTEN …, priority 2016, dated 2021).
Like-named read-outs stand apart in the source and are kept apart here. One block for each molecule: values may come before it. Peptide text beside a SMILES is read from it.

Biological target: T1, FBA6 (Arabidopsis thaliana, UniProt Q9SJQ9)
T1 construct: made in house; host or cells: E. coli
T1 sequence (Q9SJQ9 1-358): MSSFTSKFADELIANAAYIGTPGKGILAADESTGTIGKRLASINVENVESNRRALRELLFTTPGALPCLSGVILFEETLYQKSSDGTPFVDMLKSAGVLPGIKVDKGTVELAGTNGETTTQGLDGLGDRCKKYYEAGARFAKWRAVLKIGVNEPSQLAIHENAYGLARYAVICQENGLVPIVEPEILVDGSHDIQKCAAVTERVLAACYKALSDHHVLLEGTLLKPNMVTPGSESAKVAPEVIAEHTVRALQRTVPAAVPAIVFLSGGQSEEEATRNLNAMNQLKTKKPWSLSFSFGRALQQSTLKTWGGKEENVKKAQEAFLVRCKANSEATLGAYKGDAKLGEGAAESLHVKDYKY
Assay: Microscale thermophoresis (MST) binding to FBA6 expressed and purified from E. coli
Excerpt: FBA6 protein was expressed and purified from E. coli. MST uses the intristic tendency of all the biological molecules to move in the temperature gradient. This movement is dependent on the molecule size, charge and hydration shell. Complex formation affects at least one of the three parameters changing the movement and indicating binding event. […] The results obtained point to both strong and specific interaction.

Molecule: NCC(=O)N1CCC[C@H]1C(=O)O [Gly-Pro, L-Gly-L-Pro] (H-Gly-Pro-OH)
Kd: ~0.2 µM

binding to FBA6 (in words) (MST): not
Molecule: O=C(O)CNC(=O)[C@@H]1CCCN1 [Pro-Gly] (H-Pro-Gly-OH)

Molecule: dihydroxyacetone phosphate [DHAP]
Kd (MST, FBA6 purified from E. coli, read-out: Kd of binding to FBA6): ~0.2 µM
